Experimental data taken from US7056954B2, “Means for the modulation of processes mediated by retinoid receptors and compounds useful therefor” (The Salk Institute for Biological Studies, priority 1991, dated 2006).
Like-named read-outs stand apart in the source and are kept apart here.

What was measured:
[1] = target: T1, RAR-β (Homo sapiens, UniProt P10826); experiment: Cotransfection assay in CV-1 cells, RAR-beta; type: cell-based
T1 construct: expressed in transfected cells; host or cells: CV-1 (monkey kidney)
T1 sequence (P10826 1-448 isoform P10826-2): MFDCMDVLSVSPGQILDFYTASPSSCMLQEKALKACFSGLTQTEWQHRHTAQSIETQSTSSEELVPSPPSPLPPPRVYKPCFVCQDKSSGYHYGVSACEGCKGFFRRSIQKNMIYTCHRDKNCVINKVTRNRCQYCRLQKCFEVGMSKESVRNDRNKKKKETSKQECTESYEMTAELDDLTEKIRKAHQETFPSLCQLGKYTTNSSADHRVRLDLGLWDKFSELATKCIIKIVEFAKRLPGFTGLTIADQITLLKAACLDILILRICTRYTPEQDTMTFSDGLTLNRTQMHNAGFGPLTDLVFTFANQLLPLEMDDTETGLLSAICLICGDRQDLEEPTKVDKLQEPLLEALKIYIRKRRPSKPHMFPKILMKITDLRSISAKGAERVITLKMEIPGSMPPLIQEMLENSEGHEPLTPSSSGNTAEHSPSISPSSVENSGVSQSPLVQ

[2] = target: T2, RAR-α (Homo sapiens, UniProt P10276); experiment: Cotransfection assay in CV-1 cells, RAR-alpha; type: cell-based; set-up: expressed in transfected cells; host or cells: CV-1 (monkey kidney); details: for EC50: Table 4
T2 sequence (P10276 1-462): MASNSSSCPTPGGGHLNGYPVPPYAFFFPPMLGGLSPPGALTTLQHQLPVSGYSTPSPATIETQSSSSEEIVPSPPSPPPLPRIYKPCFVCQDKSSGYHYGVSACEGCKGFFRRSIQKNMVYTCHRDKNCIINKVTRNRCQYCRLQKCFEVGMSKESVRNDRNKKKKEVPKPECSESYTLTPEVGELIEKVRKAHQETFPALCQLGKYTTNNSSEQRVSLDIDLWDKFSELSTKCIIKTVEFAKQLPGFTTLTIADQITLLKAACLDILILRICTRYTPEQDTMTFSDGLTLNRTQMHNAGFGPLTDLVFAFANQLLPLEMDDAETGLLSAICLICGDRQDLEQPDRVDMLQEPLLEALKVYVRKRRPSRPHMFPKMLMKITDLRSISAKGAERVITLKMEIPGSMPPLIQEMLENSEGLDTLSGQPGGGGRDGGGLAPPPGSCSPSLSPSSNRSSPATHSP

[3] = target: T3, RXR-γ (Mus musculus, UniProt P28705); experiment: Cotransfection assay in CV-1 cells, RXR-gamma; type: cell-based; details: Table 4; read-out: Potency
T3 construct: expressed in transfected cells; host or cells: CV-1 (monkey kidney)
T3 sequence (P28705 1-463): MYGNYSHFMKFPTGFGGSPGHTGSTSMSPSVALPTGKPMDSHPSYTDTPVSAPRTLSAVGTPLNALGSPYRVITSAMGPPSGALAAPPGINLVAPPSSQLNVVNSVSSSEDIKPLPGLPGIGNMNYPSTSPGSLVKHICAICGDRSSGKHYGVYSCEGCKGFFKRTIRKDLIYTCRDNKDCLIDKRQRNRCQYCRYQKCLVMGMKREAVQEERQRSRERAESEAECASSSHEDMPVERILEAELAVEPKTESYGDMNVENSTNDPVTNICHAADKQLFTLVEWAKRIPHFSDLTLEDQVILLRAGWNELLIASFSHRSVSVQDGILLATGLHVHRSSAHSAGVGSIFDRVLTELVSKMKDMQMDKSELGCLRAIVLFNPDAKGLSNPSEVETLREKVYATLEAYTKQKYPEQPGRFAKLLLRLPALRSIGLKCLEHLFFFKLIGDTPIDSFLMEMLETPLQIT

[4] = target: T4, RAR-γ (Homo sapiens, UniProt P13631); experiment: Cotransfection assay in CV-1 cells, RAR-gamma; type: cell-based
T4 construct: expressed in transfected cells; host or cells: CV-1 (monkey kidney)
T4 sequence (P13631 1-454): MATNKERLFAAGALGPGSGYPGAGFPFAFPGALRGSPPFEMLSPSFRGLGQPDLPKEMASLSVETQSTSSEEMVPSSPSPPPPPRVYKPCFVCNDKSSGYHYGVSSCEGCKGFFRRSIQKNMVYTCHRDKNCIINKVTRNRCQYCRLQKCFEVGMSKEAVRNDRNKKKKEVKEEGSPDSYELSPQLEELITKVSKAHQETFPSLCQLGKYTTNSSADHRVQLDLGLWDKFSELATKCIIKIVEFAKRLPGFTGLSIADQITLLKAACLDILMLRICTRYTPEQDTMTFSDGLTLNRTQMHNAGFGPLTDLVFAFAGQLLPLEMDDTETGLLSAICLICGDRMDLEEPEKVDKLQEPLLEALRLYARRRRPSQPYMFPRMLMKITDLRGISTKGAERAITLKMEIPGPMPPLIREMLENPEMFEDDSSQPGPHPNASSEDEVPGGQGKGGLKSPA

[5] = target: T5, RXR-α (Homo sapiens, UniProt P19793); experiment: Cotransfection assay in CV-1 cells, RXR-alpha; type: cell-based; details: Table 4; for EC50: read-out: Potency
T5 construct: expressed in transfected cells; host or cells: CV-1 (monkey kidney)
T5 sequence (P19793 1-462): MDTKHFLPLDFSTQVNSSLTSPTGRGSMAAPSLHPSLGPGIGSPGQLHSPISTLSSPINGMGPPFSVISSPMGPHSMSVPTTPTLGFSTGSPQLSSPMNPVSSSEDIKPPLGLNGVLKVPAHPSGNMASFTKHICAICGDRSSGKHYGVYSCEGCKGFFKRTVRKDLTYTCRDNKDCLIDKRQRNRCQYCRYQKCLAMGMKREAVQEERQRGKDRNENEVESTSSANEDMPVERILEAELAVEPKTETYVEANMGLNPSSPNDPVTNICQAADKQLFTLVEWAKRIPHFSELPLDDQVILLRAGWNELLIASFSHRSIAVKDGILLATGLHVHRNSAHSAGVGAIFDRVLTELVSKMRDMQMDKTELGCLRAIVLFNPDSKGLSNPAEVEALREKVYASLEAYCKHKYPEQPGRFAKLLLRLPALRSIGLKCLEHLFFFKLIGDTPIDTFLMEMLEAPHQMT

[6] = target: T6, RXR-β (Mus musculus, UniProt P28704); experiment: Cotransfection assay in CV-1 cells, RXR-beta; type: cell-based; details: Table 4; read-out: Potency
T6 construct: expressed in transfected cells; host or cells: CV-1 (monkey kidney)
T6 sequence (P28704 1-520): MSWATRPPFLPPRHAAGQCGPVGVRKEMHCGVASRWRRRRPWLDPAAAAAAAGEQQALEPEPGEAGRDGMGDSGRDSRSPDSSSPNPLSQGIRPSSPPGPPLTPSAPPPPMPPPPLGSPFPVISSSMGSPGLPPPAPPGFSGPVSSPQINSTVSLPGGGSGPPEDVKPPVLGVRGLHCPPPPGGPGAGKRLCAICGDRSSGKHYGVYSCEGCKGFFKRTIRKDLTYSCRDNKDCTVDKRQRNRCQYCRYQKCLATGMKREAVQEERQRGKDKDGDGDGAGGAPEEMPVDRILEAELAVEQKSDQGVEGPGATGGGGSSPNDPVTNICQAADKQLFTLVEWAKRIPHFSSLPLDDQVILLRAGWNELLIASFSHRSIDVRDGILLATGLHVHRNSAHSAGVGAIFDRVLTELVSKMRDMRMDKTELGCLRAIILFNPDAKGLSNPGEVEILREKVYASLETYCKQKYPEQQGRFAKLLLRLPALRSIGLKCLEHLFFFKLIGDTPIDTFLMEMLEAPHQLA

[7] = tested on: murine melanoma cell line Clone M3; experiment: In vitro proliferation of murine melanoma cell line Clone M3
[8] = tested on: F9 cells; experiment: F9 cell differentiation, cellular morphology; type: cell-based, mouse
Description: Retinoids are known to differentiate mouse teratocarcinoma cells (F9). Differentiation of F9 cells is specifically associated with irreversible changes in morphology and induction of the biochemical marker alkaline phosphatase (ALP) and tissue plasminogen activator (tPA) (Biochem. J. Vol. 274:673–678).

[9] = tested on: human primary metastatic melanoma cell line c81–46c; experiment: In vitro proliferation of human melanoma cell line c81–46c; type: cell-based
[10] = target: T2, RAR-α; experiment: Binding studies, RAR-alpha; set-up: made in house; host or cells: bacteria (PET-8c vector)
[11] = tested on: F9 cells; experiment: F9 cell differentiation, induction of alkaline phosphatase; type: cell-based, mouse; details: maximal responses similar
[12] = tested on: F9 cells; experiment: F9 cell differentiation, tissue plasminogen activator activity; type: cell-based, mouse; details: concentration of 1 μM
[13] = tested on: Rhino mouse; experiment: Topical application, horn-filled utriculus size in the Rhino mouse; type: in vivo; details: 14 days

CC1=C(/C=C/C(C)=C\C=C\C(C)=C\C(=O)O)C(C)(C)CCC1O (stereo not drawn) [4-hydroxy-9-cis-retinoic acid] was tested. Which EC50 [1] did it give?
Its EC50 is 160 nM.

And the Efficacy [1]?
Its Efficacy is 71%.

And the EC50 ([2]; Potency)?
The EC50 was 380 nM.

And the EC50 [3]?
Its EC50 is 1700 nM.

What about the EC50 [4] of the same molecule?
Its EC50 is 180 nM.

What about the Efficacy [4] of the same molecule?
Its Efficacy is 81%.

And the Efficacy ([5]; maximal response relative to retinoic acid at 10^−5 M)?
The Efficacy was 161%.

And the EC50 [5]?
The EC50 was 1700 nM.

And the EC50 [6]?
Its EC50 is 650 nM.

With CC1=C(/C=C/C(C)=C\C=C\C(C)=C\C(=O)O)C(C)(C)CCC1=O [4-keto-9-cis-retinoic acid] as the molecule, how does the EC50 [3] read?
The EC50 was 1100 nM.

What about the EC50 [5] of the same molecule?
The EC50 was 520 nM.

And the EC50 [6]?
The EC50 was 1300 nM.

For CC1=C(/C=C/C(C)=C\C=C\C(C)=C\C(=O)O)C(C)(C)CCC1 [9-cis-retinoic acid], which “% Growth inhibition” value ([7]; Conc added 0.01 μM) is on record?
The value was −49%.

And the “% Growth inhibition” value ([7]; Conc added 1 μM)?
Its value is −85%.

What about the “differentiation of F9 cells, irreversible changes in cellular morphology” value [8] of the same molecule?
Its value is “induced differentiation of F9 cells into partial endoderm-like cells”.

And the “% Growth inhibition” value ([9]; Conc added 0.01 μM)?
The value was −28%.

What about the “% Growth inhibition” value ([9]; Conc added 1 μM) of the same molecule?
Its value is −45%.

And the “binding to RAR-alpha” value [10]?
Its value is “high affinity ligand”.

What about the “potency as an activator of RAR-alpha compared with all-trans-retinoic acid” value ([2]; FIG. 3C) of the same molecule?
The value was “equipotent”.

Which EC50 ([1]; Table 4, read-out: Potency) does the source give for CC1=C(/C=C/C(=C\C=C\C(C)=C\C(=O)O)c2ccccc2)C(C)(C)CCC1 [9-phenyl-9-cis-retinoic acid] here?
The EC50 was 880 nM.

And the EC50 ([2]; read-out: Potency)?
Its EC50 is > 10000 nM.

And the EC50 [3]?
The EC50 was 290 nM.

What about the EC50 ([4]; Table 4, read-out: Potency) of the same molecule?
The EC50 was 250 nM.

And the EC50 [5]?
The EC50 was 210 nM.

And the EC50 [6]?
Its EC50 is 44 nM.

What does the source list for CC1=C(/C=C/C(C)=C/C=C/C(C)=C/C(=O)O)C(C)(C)CCC1 [all-trans-retinoic acid]?
differentiation of F9 cells, irreversible changes in cellular morphology [8]: induced differentiation of F9 cells into partial endoderm-like cells; times more potent than 9-cis-retinoic acid in inducing ALP [11]: 40 times; increased cellular activities of tPA [12]: 0.80±0.08; Pilosebaceous structure size (% red′n) ([13]; 0.01% topical): (−75%); Pilosebaceous structure size (% red′n) ([13]; 0.1% topical): (−78%); Pilosebaceous structure size ([13]; 0.1% topical, vehicle control 178 μm): 44 μm
